From PubChem BioAssay (NCI)
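In this assay, cells in 96-well plates receive the compound at five concentrations for 48 hours. Endpoints are linearly interpolated between the surrounding concentrations. GI50 is the concentration that inhibits growth by half. The concentration for full growth arrest is given as TGI.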

Tests used:
Assay in all cases: DTP human tumour cell line panel, 48 h; in the data active means GI50 below about 0.43 µM; inactive means the rest
786-0 renal = test system: 786-0 renal
A498 renal = test system: A498 renal
A549 NSCLC = test system: A549 NSCLC
ACHN renal = test system: ACHN renal
BT-549 breast = test system: BT-549 breast
CAKI-1 renal = test system: CAKI-1 renal
CCRF-CEM leukemia = test system: CCRF-CEM leukemia
COLO 205 colon = test system: COLO 205 colon
DU-145 prostate = test system: DU-145 prostate
EKVX NSCLC = test system: EKVX NSCLC
HCC-2998 colon = test system: HCC-2998 colon
HCT-116 colon = test system: HCT-116 colon
HCT-15 colon = test system: HCT-15 colon
HOP-62 NSCLC = test system: HOP-62 NSCLC
HOP-92 NSCLC = test system: HOP-92 NSCLC
HS 578T breast = test system: HS 578T breast
HT29 colon = test system: HT29 colon
IGROV1 ovarian = test system: IGROV1 ovarian
K-562 leukemia = test system: K-562 leukemia
KM12 colon = test system: KM12 colon
LOX IMVI melanoma = test system: LOX IMVI melanoma
M14 melanoma = test system: M14 melanoma
MCF7 breast = test system: MCF7 breast
MDA-MB-231 breast = test system: MDA-MB-231 breast
MDA-MB-435 = test system: MDA-MB-435
MOLT-4 leukemia = test system: MOLT-4 leukemia
NCI-H226 lung = test system: NCI-H226 lung

c1ccc(N2CCN(CN3CCN(c4ccccc4)C3)C2)cc1
> 100 µM: TGI (786-0 renal) | TGI (A498 renal) | TGI (A549 NSCLC) | TGI (ACHN renal) | TGI (BT-549 breast) | TGI (CAKI-1 renal) | TGI (CCRF-CEM leukemia) | TGI (COLO 205 colon) | TGI (DU-145 prostate) | TGI (EKVX NSCLC) | TGI (HCC-2998 colon) | TGI (HCT-116 colon) | TGI (HCT-15 colon) | TGI (HOP-62 NSCLC) | TGI (HOP-92 NSCLC) | TGI (HS 578T breast) | TGI (HT29 colon) | TGI (IGROV1 ovarian) | TGI (K-562 leukemia) | TGI (KM12 colon) | TGI (LOX IMVI melanoma) | TGI (M14 melanoma) | TGI (MCF7 breast) | TGI (MDA-MB-231 breast) | TGI (MDA-MB-435) | TGI (MOLT-4 leukemia) | TGI (NCI-H226 lung)
inactive: GI50 (786-0 renal) > 100 µM | GI50 (A498 renal) 37.2 µM | GI50 (A549 NSCLC) > 100 µM | GI50 (ACHN renal) 54 µM | GI50 (BT-549 breast) > 100 µM | GI50 (CAKI-1 renal) > 100 µM | GI50 (CCRF-CEM leukemia) 42 µM | GI50 (COLO 205 colon) > 100 µM | GI50 (DU-145 prostate) > 100 µM | GI50 (EKVX NSCLC) > 100 µM | GI50 (HCC-2998 colon) > 100 µM | GI50 (HCT-116 colon) 41.9 µM | GI50 (HCT-15 colon) > 100 µM | GI50 (HOP-62 NSCLC) > 100 µM | GI50 (HOP-92 NSCLC) > 100 µM | GI50 (HS 578T breast) > 100 µM | GI50 (HT29 colon) > 100 µM | GI50 (IGROV1 ovarian) 25.5 µM | GI50 (K-562 leukemia) 3.9 µM | GI50 (KM12 colon) > 100 µM | GI50 (LOX IMVI melanoma) 66.6 µM | GI50 (M14 melanoma) > 100 µM | GI50 (MCF7 breast) > 100 µM | GI50 (MDA-MB-231 breast) > 100 µM | GI50 (MDA-MB-435) > 100 µM | GI50 (MOLT-4 leukemia) 23.8 µM | GI50 (NCI-H226 lung) > 100 µM
